In publication PMC6961810 (2019):

Experiments:
[1] = tested on: wt-mt (RNA, rRNA) GGCGUCACCCUCCUC/GAGGAGACAAGUCGCC; test: fluorescence titration; conditions: 150 mM NaCl, 3 mM Na2EDTA; apparent; 10 mM HEPES pH 7.4; 1 μM RNA
[2] = tested on: mut-mt (RNA, rRNA) GGCGUCACCCUCCUC/GAGGAGGCAAGUCGCC; test: fluorescence titration; conditions: 150 mM NaCl, 3 mM Na2EDTA; apparent; 10 mM HEPES pH 7.4; 1 μM RNA

Kd [1] [µM] | Kd [2] [µM] | Compound
26.9 ± 4.7 | 5.8 ± 1.8 | CCC[C@H]1[C@H](O)[C@@H](N)[C@@H](O[C@H]2[C@H](O[C@@H]3O[C@H](CO)[C@@H](O[C@H]4O[C@@H](CN)[C@@H](O)[C@H](O)[C@H]4N)[C@H]3O)[C@@H](O)[C@H](N)C[C@@H]2N)O[C@@H]1CO
12.8 ± 2.8 | 8.6 ± 2.1 | CCO[C@H]1[C@H](O)[C@@H](N)[C@@H](O[C@H]2[C@H](O[C@@H]3O[C@H](CO)[C@@H](O[C@H]4O[C@@H](CN)[C@@H](O)[C@H](O)[C@H]4N)[C@H]3O)[C@@H](O)[C@H](N)C[C@@H]2N)O[C@@H]1CO
1.1 ± 0.5 | 0.1 ± 0.02 | NC[C@@H]1O[C@H](O[C@H]2[C@@H](O)[C@H](O[C@@H]3[C@@H](O)[C@H](N)C[C@H](N)[C@H]3O[C@H]3O[C@H](CN)[C@@H](O)[C@H](O)[C@H]3N)O[C@@H]2CO)[C@H](N)[C@@H](O)[C@@H]1O
6.5 ± 0.9 | 2.8 ± 0.5 | NC[C@@H]1O[C@H](O[C@H]2[C@@H](O)[C@H](O[C@@H]3[C@@H](O)[C@H](N)C[C@H](N)[C@H]3O[C@H]3O[C@H](CO)[C@@H](O)[C@H](O)[C@H]3N)O[C@@H]2CO)[C@H](N)[C@@H](O)[C@@H]1O
